Laboratory results taken from patent US9120774B2 (University of Kansas, priority 2009, dated 2015).
Read-outs that look alike come from different tables or passages of the source.

Key:
Assay type in all cases: cell-based
[1] = tested on: MCF-7 (estrogen receptor positive breast cancer cells); test: Anti-proliferation activity against MCF-7 cells (MTS/PMS); conditions: for IC50: Homo sapiens, MCF7
Experimental: (§1) Upon completion of synthesis of library of compounds in Examples 23 and 24, the compounds were evaluated for anti-proliferative activity against SkBr3 (Her2 overexpressing breast cancer cells), MCF-7 (estrogen receptor positive breast cancer cells), HCT-116 (colon cancer cells characterized by wild-type p53), PL45 (pancreatic cancer cells), LNCaP (androgen sensitive prostate cancer cells) and PC-3 (androgen independent prostate cancer cells) cell lines.
(§2) Cells were maintained in a 1:1 mixture of Advanced DMEM/F12 (Gibco) supplemented with non-essential amino acids, L-glutamine (2 mM), streptomycin (500 ng/mL), penicillin (100 units/mL), and 10% FBS. Cells were grown to confluence in a humidified atmosphere (37° C., 5% CO2), seeded (2000/well, 100 μl) in 96-well plates, and allowed to attach overnight. Compound or GDA at varying concentrations in DMSO (1% DMSO final concentration) was added, and cells were returned to the incubator for 72 hours. At 72 hours, the number of viable cells was determined using an MTS/PMS cell proliferation kit (Promega) per the manufacturer's instructions. Cells incubated in 1% DMSO were used at 100% proliferation, and values were adjusted accordingly. IC50 values were calculated from separate experiments performed in triplicate using GraphPad Prism.
as §2, with “μg/mL),” for “ng/mL),”, “μL)” for “μl)”

[2] = tested on: PC-3 (androgen independent prostate cancer cells); test: Anti-proliferation activity against PC-3 cells; conditions: for IC50: Homo sapiens, PC-3, 72 hours, MTS/PMS, mean ± standard deviation
Experimental: as §1, with “lines. […] The monosubstituted benzamide variants improved activity.” for “lines.”
as §2, with “[…] […]” for “Compound or GDA at varying concentrations in DMSO (1% DMSO final concentration) was added, and cells were returned to the incubator for 72 hours. At 72 hours, the number of viable cells was determined using an MTS/PMS cell proliferation kit (Promega) per the manufacturer's instructions.”

[3] = tested on: LNCaP (androgen sensitive prostate cancer cells); test: Anti-proliferation activity against LNCaP cells; conditions: for IC50: Homo sapiens, LNCaP, 72 hours, MTS/PMS, mean ± standard deviation
Experimental: as §1, with “lines. […] The monosubstituted benzamide variants improved activity.” for “lines.”
as §2

[4] = tested on: SkBr3 (Her2 overexpressing breast cancer cells); test: Anti-proliferation activity against SkBr3 cells (MTS/PMS); conditions: Homo sapiens, SK-BR-3
Experimental: as §1, §2
as §2, with “μg/mL),” for “ng/mL),”, “μL)” for “μl)”

[5] = tested on: HCT-116 (colon cancer cells characterized by wild-type p53); test: Anti-proliferation activity against HCT-116 cells; conditions: Homo sapiens, Table 3, n = 3
Experimental: as §1, with “lines. […] The monosubstituted benzamide variants improved activity.” for “lines.”

[6] = tested on: PL45 (pancreatic cancer cells); test: Anti-proliferation activity against PL45 cells; conditions: Table 3, n = 3
Experimental: as §1, with “lines. […] The monosubstituted benzamide variants improved activity.” for “lines.”

[7] = Table 6, 72 hours, MTS/PMS, mean ± standard deviation, read-out: IC50 MCF-7
[8] = Table 6, 72 hours, MTS/PMS, mean ± standard deviation, read-out: IC50 SKBr3

IC50 [1, 7] [µM]	IC50 ([2]; Table 6, read-out: IC50 PC-3) [µM]	IC50 ([3]; Table 6, read-out: IC50 LnCaP) [µM]	IC50 [4, 8] [µM]	Structure (SMILES)	further results
66.9 ± 3.1	60.7 ± 9.1	14.4 ± 4.2	58.6 ± 5.4	COc1cccc(-c2cc(C(=O)Nc3cc4cc(OC(C)C)c(O[C@@H]5OC(C)(C)[C@H](OC)[C@@H](O)[C@H]5O)c(C)c4oc3=O)ccc2OC)c1 [26c, N-(7-((2S,3R,4S,5R)-3,4-dihydroxy-5-methoxy-6,6-dimethyltetrahydro-2H-pyran-2-yloxy)-6-isopropoxy-8-methyl-2-oxo-2H-chromen-3-yl)-3′,6-dimethoxybiphenyl-3-carboxamide]	times less active than the corresponding 6-H ([3]; LnCaP cells): ~7 times
24.4 ± 1.2	20.2 ± 9.8	10.5 ± 0.3	25.1 ± 7.7	COc1cc2cc(NC(=O)c3cc4ccccc4[nH]3)c(=O)oc2c(C)c1O[C@@H]1OC(C)(C)[C@H](OC)[C@@H](O)[C@H]1O [26i, N-(7-((2S,3R,4S,5R)-3,4-dihydroxy-5-methoxy-6,6-dimethyltetrahydro-2H-pyran-2-yloxy)-6-methoxy-8-methyl-2-oxo-2H-chromen-3-yl)-1H-indole-2-carboxamide]	–
> 100	35.4	6.6	58.8 ± 1.3	COc1cccc(-c2cc(C(=O)Nc3cc4cc(OC)c(O[C@@H]5OC(C)(C)[C@H](OC)[C@@H](O)[C@H]5O)c(C)c4oc3=O)ccc2OC)c1 [26a, N-(7-((2S,3R,4S,5R)-3,4-dihydroxy-5-methoxy-6,6-dimethyltetrahydro-2H-pyran-2-yloxy)-6-methoxy-8-methyl-2-oxo-2H-chromen-3-yl)-3′,6-dimethoxybiphenyl-3-carboxamide]	fold increase in anti-proliferation activity versus the 6-H derivative ([2]; PC-3 cells): 2 fold

The remaining lines, values behind:

Structure (SMILES)	IC50 [1, 7] [µM]	IC50 ([2]; Table 6, read-out: IC50 PC-3) [µM]	IC50 ([3]; Table 6, read-out: IC50 LnCaP) [µM]	IC50 [4, 8] [µM]	further results
COc1ccc(CN(C(=O)c2ccc(OC)c(-c3cccc(OC)c3)c2)c2cnc3cc(O[C@@H]4OC(C)(C)[C@H](OC)[C@@H](O)[C@H]4O)ccc3c2)cc1 [42a, N-(4-Methoxybenzyl)-N-(7-((2R,3R,4S,5R)-3,4-dihydroxy-5-methoxy-6,6-dimethyl-tetrahydro-2H-pyran-2-yloxy)quinolin-3-yl)-4-methoxy-3-(3-methoxyphenyl)-benzamide]	–	–	–	–	IC50 ([1]; Table 7, 72 hours, MTS/PMS, mean ± standard deviation, read-out: Anti-proliferation activity MCF-7): > 100 µM; IC50 ([2]; Table 7, read-out: Anti-proliferation activity PC-3): > 100 µM; IC50 ([3]; Table 7, read-out: Anti-proliferation activity LnCaP): > 100 µM; IC50 ([4]; Table 7, 72 hours, MTS/PMS, mean ± standard deviation, read-out: Anti-proliferation activity SkBr3): > 100 µM
CO[C@@H]1[C@@H](O)[C@@H](O)[C@H](Oc2ccc3cc(NC(=O)OCc4ccccc4)c(=O)oc3c2C)OC1(C)C [compound 24, Benzyl 7-((2R,3R,4S,5R)-3,4-dihydroxy-5-methoxy-6,6-dimethyltetrahydro-2H-pyran-2-yloxy)-8-methyl-2-oxo-2H-chromen-3-ylcarbamate]	–	–	–	–	IC50 ([1]; Table 3, n = 3, read-out: IC50 MCF-7): 12.1 ± 0.1 µM; IC50 [5]: 13 ± 0.2 µM; IC50 [6]: 11.4 ± 0.6 µM; IC50 ([4]; Table 3, n = 3, read-out: IC50 SkBr3): 17.8 ± 2.4 µM
CO[C@@H]1[C@@H](O)[C@@H](O)[C@H](Oc2ccc3cc(NC(=O)c4cc5ccccc5[nH]4)c(=O)oc3c2-c2ccccc2)OC1(C)C [26n, N-(7-((2R,3R,4S,5R)-3,4-dihydroxy-5-methoxy-6,6-dimethyltetrahydro-2H-pyran-2-yloxy)-2-oxo-8-phenyl-2H-chromen-3-yl)-1H-indole-2-carboxamide]	22.9 ± 2.1	28 ± 12.1	27.6 ± 10.8	38.8 ± 8.3	fold less active than the 8-methyl derivative ([1]; MCF-7 cells): 40 fold
CCCOc1cc2cc(NC(=O)c3cc4ccccc4[nH]3)c(=O)oc2c(C)c1O[C@@H]1OC(C)(C)[C@H](OC)[C@@H](O)[C@H]1O [26j, N-(7-((2S,3R,4S,5R)-3,4-dihydroxy-5-methoxy-6,6-dimethyltetrahydro-2H-pyran-2-yloxy)-8-methyl-2-oxo-6-propoxy-2H-chromen-3-yl)-1H-indole-2-carboxamide]	2.1 ± 0.1	6.2 ± 1.8	1.8 ± 0.7	2.1 ± 0.8	–
